From PubChem BioAssay (NCI)
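Dose response: 5 concentrations. Exposure: 48 h. Format: 96-well plates. Endpoint: linear interpolation; highest concentration if not reached. TGI: concentration producing complete growth inhibition.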

What was measured:
Test in all cases: DTP human tumour cell line panel, 48 h
786-0 renal = tested on: 786-0 renal
A498 renal = tested on: A498 renal
A549 NSCLC = tested on: A549 NSCLC
ACHN renal = tested on: ACHN renal
BT-549 breast = tested on: BT-549 breast
CAKI-1 renal = tested on: CAKI-1 renal
CCRF-CEM leukemia = tested on: CCRF-CEM leukemia
COLO 205 colon = tested on: COLO 205 colon
DU-145 prostate = tested on: DU-145 prostate
EKVX NSCLC = tested on: EKVX NSCLC
HCC-2998 colon = tested on: HCC-2998 colon
HCT-116 colon = tested on: HCT-116 colon
HCT-15 colon = tested on: HCT-15 colon
HL-60(TB) leukemia = tested on: HL-60(TB) leukemia
HOP-62 NSCLC = tested on: HOP-62 NSCLC
HOP-92 NSCLC = tested on: HOP-92 NSCLC
HS 578T breast = tested on: HS 578T breast
HT29 colon = tested on: HT29 colon
IGROV1 ovarian = tested on: IGROV1 ovarian
KM12 colon = tested on: KM12 colon
LOX IMVI melanoma = tested on: LOX IMVI melanoma
M14 melanoma = tested on: M14 melanoma
MALME-3M melanoma = tested on: MALME-3M melanoma
MCF7 breast = tested on: MCF7 breast
MDA-MB-231 breast = tested on: MDA-MB-231 breast
MDA-MB-435 = tested on: MDA-MB-435
MDA-N = tested on: MDA-N
MOLT-4 leukemia = tested on: MOLT-4 leukemia
NCI-H226 lung = tested on: NCI-H226 lung
NCI-H23 lung = tested on: NCI-H23 lung
NCI-H460 lung = tested on: NCI-H460 lung
NCI-H522 lung = tested on: NCI-H522 lung
NCI/ADR-RES ovarian = tested on: NCI/ADR-RES ovarian
OVCAR-3 ovarian = tested on: OVCAR-3 ovarian
OVCAR-4 ovarian = tested on: OVCAR-4 ovarian
OVCAR-5 ovarian = tested on: OVCAR-5 ovarian
OVCAR-8 ovarian = tested on: OVCAR-8 ovarian
PC-3 prostate = tested on: PC-3 prostate
RPMI-8226 leukemia = tested on: RPMI-8226 leukemia
RXF 393 renal = tested on: RXF 393 renal
SF-268 CNS = tested on: SF-268 CNS
SF-295 CNS = tested on: SF-295 CNS
SF-539 CNS = tested on: SF-539 CNS
SK-MEL-2 melanoma = tested on: SK-MEL-2 melanoma
SK-MEL-28 melanoma = tested on: SK-MEL-28 melanoma
SK-MEL-5 melanoma = tested on: SK-MEL-5 melanoma
SK-OV-3 ovarian = tested on: SK-OV-3 ovarian
SN12C renal = tested on: SN12C renal
SNB-19 CNS = tested on: SNB-19 CNS
SNB-75 CNS = tested on: SNB-75 CNS
SR leukemia = tested on: SR leukemia
SW-620 colon = tested on: SW-620 colon
T-47D breast = tested on: T-47D breast
TK-10 renal = tested on: TK-10 renal
U251 CNS = tested on: U251 CNS
UACC-257 melanoma = tested on: UACC-257 melanoma
UACC-62 melanoma = tested on: UACC-62 melanoma
UO-31 renal = tested on: UO-31 renal

Measured: TGI

COc1ccc(P2(=S)SP(=S)(c3ccc(Cl)cc3)S2)cc1 (stereo not drawn)
> 100 µM: all assays above
